According to publication PMC5859730, “Dual targeting of the cancer antioxidant network with 1,4-naphthoquinone fused Gold(I) N-heterocyclic carbene complexes” (Chemical Science, 2017):
Several values for one entry are separate records, joined by “and”; a condition that tells them apart may be missing. Identical values can stand only once. Like-named read-outs stand apart in the source and are kept apart here.

How the values were obtained:
[1] = tested on: thioredoxin reductase (TrxR); conditions: 6 h exposure; for Inhibition of TrxR at higher concentrations: A549, 1.25–5.0 μM, lipoate reduction; for Inhibition of TrxR at low concentrations: A549, 0.1–0.6 μM, lipoate reduction over 180 min
Procedure: Briefly, plateau phase A549 cells were exposed to variable doses of complexes 1, 3, 4[H][Cl], a 2 : 1 molar ratio of 4[H][Cl] and 5 (cocktail), auranofin, and doxorubicin for 6 h. Post treatment, the live cells were monitored colorimetrically over 180 min for their ability to reduce lipoate (Fig. 8a).

A549 lung cancer cells [2] = assay: Cell proliferation (MTT assay) in A549 lung cancer cells; type: cell-based, human; conditions: for Fold less potent than 1 in cell proliferation: A549
Procedure: To gauge the ability of each complex to inhibit cancer cell growth, A549 lung cancer cells were treated with 1–3, 4[H][Cl], doxorubicin, and auranofin in a dose responsive manner. Cellular vitality (i.e., mitochondrial reductase activity) was then quantified colorimetrically post treatment using 3-(4,5-dimethylthiazol-2-yl)-2,5-diphenyltetrazolium bromide (MTT assay) (Table 2, Fig. 5).
(§1) Biological preparations and assays
(§2) Experimental compound preparation. Stock solutions of complexes 1–3, 4[H][Cl], auranofin (Tocris Bioscience 4600), and doxorubicin (Tocris Bioscience 2252) were dissolved in DMSO (2.5–10 mM, depending on the compound and its solubility), aliquoted, and stored at -80 °C prior to use.
(§3) Biological Materials and Cell Lines. Cell lines were obtained from the ATCC (A549 and PC-3) and Prof.
Zahid Siddik at M.D. Anderson Cancer Center (A2780 and A2780CP). Cell culture plastic ware (i.e. T-75 flasks, treated 6-well plates, treated 96-well plates, and cell scrapers) were obtained from Fisher Scientific. Cell were cultured in RPMI 1640 culture medium (+2mM glutamine, +25mM HEPES, Corning 10041cv) supplemented with 10% heat-inactivated fetal bovine serum (RMBIO FBS-BBT) and 1X penicillin-streptomycin (Sigma p4333). Unless otherwise noted, incubators were set to 37°C and 5% CO2.
Trypsin (HyClone SH30236.01) and 1X Phosphate Buffered Saline (HyClone SH30258.02, diluted in autoclaved deionized water) were utilized for general cell line maintenance and harvesting. Trace Metal […]
Cell Proliferation Studies. Cells were harvested and seeded into 96-well culture plates (Costar 07-200-90) in 100µL of culture media. They were allowed to incubate overnight at 37 °C in the presence of 5% CO2. […]
and PC-3 at 2000 cells/well. […]
were made. To each well of a 96 well plate was added 100 µL of the appropriate solution. After a total of three days, a […] aliquot of 3 mg/mL tetrazolium dye, 3-(4,5-dimethylthiazol-2-yl)-2,5-diphenyltetrazolium bromide (Alfa Aesar L11939) was added to each well, followed by a 4 hr incubation period at 37 °C. The medium was then removed, the resulting formazan was dissolved in […] DMSO and the respective absorbances were measured at 560–650 nm using a microplate reader (Molecular Devices, Sunnyvale, CA). Absorbance values were corrected for background and then normalized to wells containing untreated cells to allow for plate-to-plate comparisons. The data are shown as mean inhibition of proliferation or growth as a percentage of control cells and are from 2–3 replicate experiments. Resulting dose response curves were subjected to linear regression analysis (Origin by OriginLab, Inc.) for determination of IC50 values.

A549 cells = assay: Detection of intracellular ROS by flow cytometry (CM-H2DCFDA); type: cell-based, human; conditions: for Increase in intracellular ROS (fluorescence cell population shift): A549, 2.5 μM, 6 h incubation, CM-H2DCFDA; for Intracellular ROS increase, in words: A549, 0.625–2.5 μM, 6 h
A549 lung cancer cells [3] = assay: ICP-MS detection of intracellular Au (cellular uptake)
[4] = Differential pulse voltammetry, quinone reduction potentials; type: physicochemical; conditions: DMSO, 0.1 M [N(nBu)4][PF6], 0.1 mM analyte, vs. SCE; for E 1/2 a (V) DPV: first reduction, semiquinone radical (NQ˙–); for E 1/2 b (V) DPV: second reduction, quinone dianion (NQ2–)
Procedure: A series of electrochemical analyses, including cyclic voltammetry (CV) and differential pulse voltammetry (DPV), were carried out with [NnBu4][PF6] in anhydrous dimethyl sulfoxide (DMSO) in order to evaluate electronic properties of compounds 1–3 and 4[H][Cl]. […] These electrochemical features were attributed to the reduction of the quinone moiety to first produce the semiquinone radical (NQ^–) and then produce the quinone dianion (NQ^2–) forms of compounds 1–3 and 4[H][Cl].[70],[71] The quinone reduction potential in 4[H][Cl] occurs at –0.38 V, the lowest of all the molecules studied, indicative of a positively charged imidazolium ring. The quinone couple at –0.42 V observed for compound 1 is ascribed to the presence of bis(NHC). The same wave in compound 3 appears at a more negative potential (–0.47 V), presumably due to greater trans effects excreted by quinone annulated NHC ligand than the metal-bound chloride. This analysis agrees well with the differences in the observed δ^13C (Au–Ccarbene) resonances for compounds 1 and 3. […]
mM) as referenced to SCE (internal standard Fc0/+, adjusted to 0.435 V vs. SCE).

A2780 ovarian = assay: Cell proliferation (MTT assay) in A2780 ovarian cells; type: cell-based, human; conditions: Homo sapiens, A2780; wt-p53, platinum sensitive; Table 3
Procedure: (§4) Further anti-proliferation studies were carried out with complex 1 and its naphthoquinone component 4[H][Cl] using the following cell lines: A2780 ovarian (a wt-p53 cell line sensitive to platinum treatment), 2780CP ovarian (isogenic to A2780 but expressing multi-drug resistance (MDR)), and PC-3 prostate (p53 null) (Table 3).
as §1, §2, §3
(§5) Zahid Siddik at M.D. Anderson Cancer Center (A2780 and A2780CP). Cell culture plastic ware (i.e. T-75 flasks, treated 6-well plates, treated 96-well plates, and cell scrapers) were obtained from Fisher Scientific. […]
(§6) were made. […] The medium was then removed, the resulting formazan was dissolved in […] DMSO and the respective absorbances were measured at 560–650 nm using a microplate reader (Molecular Devices, Sunnyvale, CA). Absorbance values were corrected for background and then normalized to wells containing untreated cells to allow for plate-to-plate comparisons. […]

2780CP ovarian = assay: Cell proliferation (MTT assay) in 2780CP ovarian cells; type: cell-based, human; conditions: Homo sapiens; isogenic to A2780, multi-drug resistance; Table 3
Procedure: as §4, §1, §2, §3, §5, §6

PC-3 prostate = assay: Cell proliferation (MTT assay) in PC-3 prostate cells; type: cell-based, human; conditions: Homo sapiens, Prostate cell; p53 null; Table 3
Procedure: as §4, §1, §2, §3, §5, §6

[5] = tested on: DNA duplex (5'CCGCAGCCA3'/5'TGGCTGCGG3'); assay: Thermal denaturation of a DNA duplex; type: binding; conditions: 1 molar equivalent, 5 μM complex and duplex
[6] = Serum protein binding: free Au in fetal bovine serum by ICP-MS; type: in vitro ADME; conditions: 25 μM in FBS, 37 °C, methanolic extracts, up to 100 h
Procedure: To assess potential drug protein interactions, samples of fetal bovine serum (FBS) were treated with 25 μM 1, 3, and auranofin prior to incubating at 37 °C. Aliquots were taken and the free Au (non-protein bound, methanolic extracts) content was analyzed by ICP-MS (Fig. 6b).
Serum Protein Binding Studies.
aliquots were stored at -80°C.
in an Edvotek microcentrifuge. […] Samples
Detection of ROS by Flow Cytometry.
cells were treated with vehicle only.
g) at 5 °C. […] The pellet was
Control samples of unstained cells,
overnight. […] Post incubation, the media was
After incubation, the dye-
Cells were then imaged fluorescently
Lipoate Inhibition Assays.
well culture plates. […] The next day, appropriate
were added to each well. […] Afterwards, the liquid was then

[7] = A549, ratio of IC50 to that of 1 (Table 2)
[8] = A549 lung cancer cells, MTT, 72 h, read-out: IC50

In the case of `Cc1cc(C)c(-[n+]2ccn(Cc3ccccc3)[c]2[Au-][c]2n(Cc3ccccc3)cc[n+]2-c2c(C)cc(C)cc2C)c(C)c1.[Cl-]` [Complex 5, bis(1-benzyl-3-mesityl-imidazol-2-ylidene)-gold(I) chloride, reference compound], the “Inhibition of TrxR at higher concentrations” value [1] is reported as “became evident”, the “Fold less potent than 1 in cell proliferation” value (A549 lung cancer cells [2]) is reported as about 10 fold and the “Fold difference relative to 1” value (A549 lung cancer cells [2]; [7]) is reported as 9.72. The IC50 (A549 lung cancer cells [2]; [8]) was 710 nM, the “Increase in intracellular ROS (fluorescence cell population shift)” value (A549 cells) was about 11 fold and the “Intracellular Au levels (uptake), in words” value (A549 lung cancer cells [3]; A549, ICP-MS) was “identical”.
For `Cc1cc(C)c(-n2c3c([n+](-c4c(C)cc(C)cc4C)[c]2[Au-][Cl])C(=O)c2ccccc2C3=O)c(C)c1` [Complex 3, 1,3-dimesityl-4,5-naphthoquino-imidazol-2-ylidene)-gold(I) chloride], the “Inhibition of TrxR at higher concentrations” value [1] was “remained inactive”, the “Fold less potent than 1 in cell proliferation” value (A549 lung cancer cells [2]) was > 150 fold and 165 fold and the “Fold difference relative to 1” value (A549 lung cancer cells [2]; [7]) was 165. For the same molecule, the IC50 (A549 lung cancer cells [2]; [8]) was 12100 nM, the “Intracellular ROS increase, in words” value (A549 cells) was “minimal or no ROS increase” and the “Intracellular Au levels (uptake), in words” value (A549 lung cancer cells [3]) was “no intracellular Au was detected”. The “E 1/2 a (V) DPV” value [4] was “–0.47 V” and the “E 1/2 b (V) DPV” value [4] was “–1.31 V”.
In the case of `Cc1cc(C)c(-n2c[n+](-c3c(C)cc(C)cc3C)c3c2C(=O)c2ccccc2C3=O)c(C)c1` [4[H][Cl], 1,3-dimesitylnaphthoquinimidazolium], the “Inhibition of TrxR at higher concentrations” value [1] is reported as “became evident”, the “Fold less potent than 1 in cell proliferation” value (A549 lung cancer cells [2]) is reported as about 14 fold and the “Fold difference relative to 1” value (A549 lung cancer cells [2]; [7]) is reported as 13.6. It also gave an IC50 (A549 lung cancer cells [2]; Homo sapiens, A549, 72 h, A549 lung cancer cells, MTT, 72 h, read-out: IC50) of 990 ± 120 nM, an IC50 (A549 lung cancer cells [2]; Homo sapiens, A549, Table 3, error = standard error from the mean, read-out: IC50 A549 lung) of 994 ± 120 nM and an IC50 (A2780 ovarian) of 159 ± 58 nM. The IC50 (2780CP ovarian) was 626 ± 117 nM, the IC50 (PC-3 prostate) was 136 ± 20 nM and the “Increase in intracellular ROS (fluorescence cell population shift)” value (A549 cells) was about 11 fold. The “E 1/2 a (V) DPV” value [4] was “–0.38 V”, the “E 1/2 b (V) DPV” value [4] was “–1.15 V” and the “Thermal stabilization of DNA” value [5] was “no thermal stabilization”.
With `CC(=O)OC[C@H]1O[C@@H]([S-])[C@H](OC(C)=O)[C@@H](OC(C)=O)[C@@H]1OC(C)=O.CCP(CC)CC.[Au+]` [Auranofin, reference compound] the “Inhibition of TrxR at low concentrations” value [1] was “inhibition of TrxR was apparent”, the “Fold less potent than 1 in cell proliferation” value (A549 lung cancer cells [2]) was 23 fold and the “Fold difference relative to 1” value (A549 lung cancer cells [2]; [7]) was 22.9. For the same molecule, the IC50 (A549 lung cancer cells [2]; [8]) was 1670 nM, the “Intracellular ROS increase, in words” value (A549 cells) was “minimal or no ROS increase” and the “Increase in intracellular Au concentration as compared to complex 1” value (A549 lung cancer cells [3]; A549, regardless of dose) was 2–5 fold. The “Free Au (non-protein bound) content over time” value [6] was “decreased in a time dependent manner”.
With `COc1cccc2c1C(=O)c1c(O)c3c(c(O)c1C2=O)C[C@@](O)(C(=O)CO)C[C@@H]3O[C@H]1C[C@H](N)[C@H](O)[C@H](C)O1` [Doxorubicin, reference compound] the “Inhibition of TrxR at low concentrations” value [1] was “little to no inhibition”, the “Inhibition of TrxR at higher concentrations” value [1] was “remained inactive” and the “Fold difference relative to 1” value (A549 lung cancer cells [2]) was 1.41. The “Intracellular ROS increase, in words” value (A549 cells) was “minimal or no ROS increase” and the “Thermal stabilization of DNA” value [5] was “Significant DNA stabilization”.
With `Cc1cc(C)c(-n2c3c(n(-c4c(C)cc(C)cc4C)[c]2=[Au]([Cl])=[c]2n(-c4c(C)cc(C)cc4C)c4c(n2-c2c(C)cc(C)cc2C)C(=O)c2ccccc2C4=O)C(=O)c2ccccc2C3=O)c(C)c1` [Complex 2, [bis(1,3-dimesityl-4,5-naphthoquino-imidazol-2-ylidene)-gold(I)] chloride] the “Fold difference relative to 1” value (A549 lung cancer cells [2]; [7]) was 1, the IC50 (A549 lung cancer cells [2]; [8]) was 75 nM and the “E 1/2 a (V) DPV” value [4] was “–0.46 V”. For the same molecule, the “E 1/2 b (V) DPV” value [4] was “–1.31 V”.
